The results in this text go back to patent US10435399B2, “HDAC6 inhibitory heterocyclic compound” (TAKEDA PHARMACEUTICAL COMPANY LIMITED, priority 2017, dated 2019).

The experiment has as its target T1, HDAC6 enzyme (Homo sapiens, UniProt Q9UBN7).
T1 construct: transducing full length HDAC6 gene into Sf-9 insect cells; GST; purchased SignalChem; host or cells: Sf-9 insect cells
T1 sequence (Q9UBN7 1-1215): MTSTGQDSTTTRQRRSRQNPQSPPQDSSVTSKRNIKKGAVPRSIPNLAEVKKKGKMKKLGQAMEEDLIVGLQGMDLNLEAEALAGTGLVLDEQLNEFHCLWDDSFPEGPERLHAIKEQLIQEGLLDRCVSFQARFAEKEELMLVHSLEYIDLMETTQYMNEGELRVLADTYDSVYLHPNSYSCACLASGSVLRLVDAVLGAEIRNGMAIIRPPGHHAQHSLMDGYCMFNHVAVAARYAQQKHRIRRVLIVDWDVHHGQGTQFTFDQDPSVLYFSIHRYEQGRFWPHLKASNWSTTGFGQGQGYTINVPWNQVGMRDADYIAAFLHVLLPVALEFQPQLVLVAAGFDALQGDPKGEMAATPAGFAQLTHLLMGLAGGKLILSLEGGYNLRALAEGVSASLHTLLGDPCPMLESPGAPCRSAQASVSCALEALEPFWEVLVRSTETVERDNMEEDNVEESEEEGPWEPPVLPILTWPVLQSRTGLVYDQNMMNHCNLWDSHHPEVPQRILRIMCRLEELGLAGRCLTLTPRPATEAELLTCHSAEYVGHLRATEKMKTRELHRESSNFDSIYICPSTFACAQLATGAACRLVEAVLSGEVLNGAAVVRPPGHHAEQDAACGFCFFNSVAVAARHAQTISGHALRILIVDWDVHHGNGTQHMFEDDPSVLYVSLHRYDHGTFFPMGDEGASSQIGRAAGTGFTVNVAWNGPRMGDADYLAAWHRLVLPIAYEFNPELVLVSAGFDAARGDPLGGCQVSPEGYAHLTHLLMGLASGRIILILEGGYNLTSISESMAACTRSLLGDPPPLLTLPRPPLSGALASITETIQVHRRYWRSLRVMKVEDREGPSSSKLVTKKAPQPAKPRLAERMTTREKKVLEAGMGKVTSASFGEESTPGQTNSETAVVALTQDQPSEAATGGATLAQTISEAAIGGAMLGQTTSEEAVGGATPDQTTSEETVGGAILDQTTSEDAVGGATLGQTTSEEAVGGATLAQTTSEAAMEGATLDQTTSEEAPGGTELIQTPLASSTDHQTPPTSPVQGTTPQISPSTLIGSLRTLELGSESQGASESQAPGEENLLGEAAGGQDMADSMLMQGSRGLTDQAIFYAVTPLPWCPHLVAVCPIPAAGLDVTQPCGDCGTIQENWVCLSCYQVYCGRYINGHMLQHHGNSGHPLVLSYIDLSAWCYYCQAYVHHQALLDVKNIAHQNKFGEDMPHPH
Put plainly: HDAC6 enzyme inhibitory activity (HDAC-Glo I/II Assay kit). The settings on record: 10 μM, wells without enzyme = 100% inhibition; for inhibition at 10 µM: read-out: HDAC6 inhibitory rate (%) (10 μM). The format is biochemical. Here is the method:
HDAC6 enzyme prepared by transducing full length HDAC6 gene into Sf-9 insect cells and purifying by GST affinity column were purchased from SignalChem. Using this enzyme, HDAC6 enzyme inhibitory activities of the compound of the present invention were evaluated. Enzymes were used after preserved at −70° C. HDAC6 enzyme inhibitory activity of the compound of the present invention was measured using HDAC-Glo™ I/II Assay kit (Promega) according to the following experimental method. The test compound diluted with assay buffer (24 mM Tris-HCl (pH 7.5), 1 mM MgCl2, 0.35 mM KCl, 135 mM NaCl, 0.6 mM Glutathione, 0.01% Tween-20) was added to a 384-well plate by each 2 μL. Then, HDAC6 enzyme solution diluted with assay buffer was added thereto by each 4 μL, and the plate was incubated at room temperature for 60 min. After incubated, HDAC substrate-Developer solution prepared according to Promega protocol attached to the assay kit was added to the 384-well plate by each 2 μL, and the enzyme reaction was started. After reacting at room temperature for 20 min, luminescence level was measured using plate reader Envision (PerkinElmer). The inhibitory activity of each compound of Example was calculated as a relative activity value when luminescence level in wells without enzyme is considered as 100% inhibition.

With `O=C(C(F)F)N1CCC[C@H](N2Cc3ccc(-c4nnc(C(F)F)o4)cc3C2=O)[C@H]1c1ccc(F)cc1` (racemic) [Example 584, 2-((2RS,3SR)-1-(difluoroacetyl)-2-(4-fluorophenyl)piperidin-3-yl)-6-(5-(difluoromethyl)-1,3,4-oxadiazol-2-yl)isoindolin-1-one], the inhibition at 10 µM is 100%.
The same measure, in the same setting: the figure for `O=C1c2cc(-c3nnc(C(F)F)o3)cnc2CN1[C@@H]1CCCC[C@H]1Oc1cncc(F)c1` (racemic) [Example 585, 3-(5-(difluoromethyl)-1,3,4-oxadiazol-2-yl)-6-((1RS,2RS)-2-((5-fluoropyridin-3-yl)oxy)cyclohexyl)-6,7-dihydro-5H-pyrrolo[3,4-b]pyridin-5-one] is 100%; for `CC(C)(C)OC(=O)N1CCC[C@@H](N2Cc3ccc(-c4nnc(C(F)F)o4)cc3C2=O)[C@H]1c1ccc(F)cc1` (racemic) [Example 618, tert-butyl (2RS,3RS)-3-(6-(5-(difluoromethyl)-1,3,4-oxadiazol-2-yl)-1-oxo-1,3-dihydro-2H-isoindol-2-yl)-2-(4-fluorophenyl)piperidine-1-carboxylate] it is 99%; for `O=C1c2cc(-c3nnc(C(F)F)o3)ccc2CN1[C@@H]1CCCN[C@@H]1c1ccc(F)cc1` (racemic) [Example 620, 6-(5-(difluoromethyl)-1,3,4-oxadiazol-2-yl)-2-((2RS, 3RS)-2-(4-fluorophenyl)piperidin-3-yl)isoindolin-1-one] it is 101%.
Take `O=C1c2cc(-c3nnc(C(F)F)o3)ccc2CN1[C@@H]1CCCN(C(=O)C(F)F)[C@@H]1c1ccc(F)cc1` (racemic) [Example 624, 2-((2RS,3RS)-1-(difluoroacetyl)-2-(4-fluorophenyl)piperidin-3-yl)-6-(5-(difluoromethyl)-1,3,4-oxadiazol-2-yl)isoindolin-1-one]: the inhibition at 10 µM came out at 100%.
Same read-out and setting: the figure for `O=C1c2cc(-c3nnc(C(F)F)o3)cnc2CN1[C@@H]1CCCC[C@H]1c1ccn[nH]1` (racemic) [Example 654, 3-[5-(difluoromethyl)-1,3,4-oxadiazol-2-yl]-6-[(1RS,2RS)-2-(1H-pyrazol-5-yl)cyclohexyl]-6,7-dihydro-5H-pyrrolo[3,4-b]pyridin-5-one] is 100%; for `O=C1c2cc(-c3nnc(C(F)F)o3)ccc2CN1[C@@H]1CCCC[C@H]1n1cccn1` (relative stereo) [Example 528, 6-(5-(difluoromethyl)-1,3,4-oxadiazol-2-yl)-2-((1R*,2R*)-2-(1H-pyrazol-1-yl)cyclohexyl)isoindolin-1-one (optical isomer)] it is 99%.
Regarding `O=C1c2cc(-c3nnc(C(F)F)o3)ccc2CN1[C@@H]1CCCC[C@H]1n1cccn1` (relative stereo) [Example 529, 6-(5-(difluoromethyl)-1,3,4-oxadiazol-2-yl)-2-((1R*,2R*)-2-(1H-pyrazol-1-yl)cyclohexyl)isoindolin-1-one (optical isomer)], the “HDAC6 inhibitory rate (%) (10 μM)” value turned out to be 100%.
Take `O=C1c2cc(-c3nnc(C(F)F)o3)cnc2CN1[C@@H]1CCCC[C@H]1n1cccn1` (relative stereo) [Example 539, 3-(5-(difluoromethyl)-1,3,4-oxadiazol-2-yl)-6-((1R*,2R*)-2-(1H-pyrazol-1-yl)cyclohexyl)-6,7-dihydro-5H-pyrrolo[3,4-b]pyridin-5-one (optical isomer)]: the inhibition at 10 µM came out at 99%.
For `O=C1c2cc(-c3nnc(C(F)F)o3)ccc2CN1[C@H]1CCCC[C@H]1n1cccn1` (relative stereo) [Example 542, 6-(5-(difluoromethyl)-1,3,4-oxadiazol-2-yl)-2-((1S*,2R*)-2-(1H-pyrazol-1-yl)cyclohexyl)isoindolin-1-one (optical isomer)], the inhibition at 10 µM worked out at 90%.
As for `O=C1c2cc(-c3nnc(C(F)F)o3)ccc2CN1[C@H]1CCCC[C@H]1n1cccn1` (relative stereo) [Example 543, 6-(5-(difluoromethyl)-1,3,4-oxadiazol-2-yl)-2-((1S*,2R*)-2-(1H-pyrazol-1-yl)cyclohexyl)isoindolin-1-one (optical isomer)], the “HDAC6 inhibitory rate (%) (10 μM)” value was determined as 100%.
Consider `COC(=O)N1CC[C@@H](c2ccc(F)cc2)[C@H](N2Cc3ccc(-c4nnc(C(F)F)o4)cc3C2=O)C1` (relative stereo) [Example 544, methyl (3S*,4S*)-3-(6-(5-(difluoromethyl)-1,3,4-oxadiazol-2-yl)-1-oxo-1,3-dihydro-2H-isoindol-2-yl)-4-(4-fluorophenyl)piperidine-1-carboxylate (optical isomer)], for which the inhibition at 10 µM was found to be 99%.
`COC(=O)N1CC[C@@H](c2ccc(F)cc2)[C@H](N2Cc3ccc(-c4nnc(C(F)F)o4)cc3C2=O)C1` (relative stereo) [Example 545, methyl (3S*,4S*)-3-(6-(5-(difluoromethyl)-1,3,4-oxadiazol-2-yl)-1-oxo-1,3-dihydro-2H-isoindol-2-yl)-4-(4-fluorophenyl)piperidine-1-carboxylate (optical isomer)]: the “HDAC6 inhibitory rate (%) (10 μM)” value is recorded as 100%.
As for `O=C1c2cc(-c3nnc(C(F)F)o3)cnc2CN1[C@@H]1CCCC[C@H]1Oc1ccc(F)cc1` (relative stereo) [Example 551, 3-(5-(difluoromethyl)-1,3,4-oxadiazol-2-yl)-6-((1R*,2R*)-2-(4-fluorophenoxy)cyclohexyl)-6,7-dihydro-5H-pyrrolo[3,4-b]pyridin-5-one (optical isomer)], the inhibition at 10 µM turned out to be 99%.
For `O=C1c2cc(-c3nnc(C(F)F)o3)cnc2CN1[C@@H]1CCCC[C@H]1Oc1ccc(F)cc1` (relative stereo) [Example 552, 3-(5-(difluoromethyl)-1,3,4-oxadiazol-2-yl)-6-((1R*,2R*)-2-(4-fluorophenoxy)cyclohexyl)-6,7-dihydro-5H-pyrrolo[3,4-b]pyridin-5-one (optical isomer)], the “HDAC6 inhibitory rate (%) (10 μM)” value stood at 100%.
For the molecule `O=C1c2cc(-c3nnc(C(F)F)o3)ccc2CN1[C@@H]1CCC(F)(F)C[C@H]1c1ccccn1` (relative stereo) [Example 586, 6-(5-(difluoromethyl)-1,3,4-oxadiazol-2-yl)-2-((1R*,2R*)-4,4-difluoro-2-(pyridin-2-yl)cyclohexyl)isoindolin-1-one (Optical Isomer)], the inhibition at 10 µM is 100%.
On the same count and under the same terms, the value for `O=C1c2cc(-c3nnc(C(F)F)o3)cnc2CN1[C@@H]1CCCC[C@H]1c1ccccn1` (relative stereo) [Example 587, 3-(5-(difluoromethyl)-1,3,4-oxadiazol-2-yl)-6-((1R*,2R*)-2-(pyridin-2-yl)cyclohexyl)-6,7-dihydro-5H-pyrrolo[3,4-b]pyridin-5-one (optical isomer)] was 99%.
For the molecule `O=C1c2cc(-c3nnc(C(F)F)o3)cnc2CN1[C@@H]1CCCC[C@H]1c1ccccn1` (relative stereo) [Example 588, 3-(5-(difluoromethyl)-1,3,4-oxadiazol-2-yl)-6-((1R*,2R*)-2-(pyridin-2-yl)cyclohexyl)-6,7-dihydro-5H-pyrrolo[3,4-b]pyridin-5-one (optical isomer)], the “HDAC6 inhibitory rate (%) (10 μM)” value turned out to be 100%.
On to `O=C1c2cc(-c3nnc(C(F)F)o3)ccc2CN1[C@@H]1CCC(F)(F)C[C@@H]1c1ccccn1` (relative stereo) [Example 590, 6-(5-(difluooromethyl)-1,3,4-oxadiazol-2-yl)-2-((1R*,2S*)-4,4-difluoro-2-(pyridin-2-yl)cyclohexyl)isoindolin-1-one (optical isomer)], for which the inhibition at 10 µM amounted to 100%.
